Laboratory results: paper PMC4462581 (PLoS ONE, 2015)

Legend:
[1] = system: BoNT/A intoxication of mouse ES-MNs (SNAP-25 cleavage); format: cell-based
[2] = system: BoNT/E intoxication of human ES-MNs (SNAP-25 cleavage); format: cell-based
BoNT/A LC = BoNT/A LC (Clostridium botulinum, UniProt P0DPI0); experiment: biochemical
[3] = system: BoNT/A intoxication of human ES-MNs (SNAP-25 cleavage); format: cell-based
[4] = system: BoNT/A intoxication of mouse ES-MNs (SNAP-25 cleavage); format: cell-based; remark: listed apart in the source

BoNT/A LC, sequence (P0DPI0 2-448 limits assumed): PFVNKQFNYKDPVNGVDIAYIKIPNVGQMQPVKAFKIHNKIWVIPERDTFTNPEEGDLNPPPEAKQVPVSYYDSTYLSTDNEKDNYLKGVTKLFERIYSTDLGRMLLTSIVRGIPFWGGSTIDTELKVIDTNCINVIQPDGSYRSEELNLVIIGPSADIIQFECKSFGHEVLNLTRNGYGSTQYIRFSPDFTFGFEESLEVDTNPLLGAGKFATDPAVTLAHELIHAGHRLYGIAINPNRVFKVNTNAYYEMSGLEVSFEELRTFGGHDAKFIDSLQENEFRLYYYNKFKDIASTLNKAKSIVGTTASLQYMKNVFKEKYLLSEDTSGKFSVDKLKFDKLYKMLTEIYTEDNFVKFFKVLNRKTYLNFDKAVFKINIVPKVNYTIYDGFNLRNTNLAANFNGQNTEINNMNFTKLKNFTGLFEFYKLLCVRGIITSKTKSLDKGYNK

| Compound | Protection against BoNT/A (SNAP-25 cleavage), library screen outcome [1] | Protection of SNAP-25 against BoNT/E, 30 min post-intoxication [2] | IC50 (BoNT/A LC) | Protection of SNAP-25 against BoNT/E, 60 min post-intoxication [2] | Antagonism of BoNT/A mediated SNAP-25 cleavage, 60 min post-intoxication [3] | Protection of SNAP-25 against BoNT/A, pre-intoxication, dose dependence [3] | Protection of SNAP-25 against BoNT/A, western blot [4] |
| --- | --- | --- | --- | --- | --- | --- | --- |
| CC1(C)C(=O)N=C2C1=C(O)C(=O)c1ccccc12 [BVT 948] | identified as potential BoNT/A intoxication inhibitors | efficacious | > 20 µM |  |  |  |  |
| N=C(N)c1ccc(OCCCCCOc2ccc(C(=N)N)cc2)cc1 [Pentamidine] | identified as potential BoNT/A intoxication inhibitors | not statistically significant | > 20 µM | not statistically significant | trended toward, but did not reach, statistical significance | qualitatively lower level of SNAP-25 cleavage protection | qualitatively lower level of SNAP-25 cleavage protection |
| CO/C1=C\C(C)=C\[C@@H](C)[C@@H](O)[C@@H](C)C/C(C)=C/C=C/[C@H](OC)[C@@H]([C@@H](C)[C@@H](O)[C@H](C)[C@@]2(O)C[C@@H](O)[C@H](C)[C@@H](C(C)C)O2)OC1=O [bafilomycin] |  |  |  |  |  | dose-dependent protection |  |
| O=C1C(=O)c2ccccc2-c2ccccc21 [9,10-Phenanthrenequinone] | identified as potential BoNT/A intoxication inhibitors | statistically significant protection | > 20 µM | statistically significant protection |  |  |  |
| O=C1C(Cl)=C(NCCN2CCOCC2)C(=O)c2ncccc21 [NSC 663284] | identified as potential BoNT/A intoxication inhibitors | statistically significant protection | > 20 µM | statistically significant protection |  |  |  |
